# Columns and labels:
# U-87 MG = assay: Antiproliferative activity against human U-87 MG cells incubated for 48 hrs by MTT assay; assay type: functional, cell-based, U-87MG ATCC
# BE(2)-C [1] = assay: Antiproliferative activity against human BE2C cells incubated for 48 hrs by MTT assay; assay type: functional, cell-based
# A549 = assay: Antiproliferative activity against human A549 cells incubated for 48 hrs by MTT assay; assay type: functional, cell-based; details: A549, 48 h
# HCT-116 = assay: Antiproliferative activity against human HCT-116 cells incubated for 48 hrs by MTT assay; assay type: functional, cell-based; details: HCT-116, 48 h
# [2] = Metabolic stability in human liver microsomes assessed as intrinsic clearance; assay type: ADME, Microsome; details: read-out: CLH
# [3] = Aqueous solubility of compound at 1 mg incubated for 10 mins; assay type: physicochemical
# [4] = Metabolic stability in human liver microsomes assessed as compound remaining incubated for 10 mins; assay type: ADME, Microsome; details: read-out: Stability
# [5] = Metabolic stability in human liver microsomes assessed as half life; assay type: ADME, Microsome
# [6] = Metabolic stability in human liver microsomes assessed as compound remaining incubated for 30 mins; assay type: ADME, Microsome; details: microsomes, 0.5 h
# [7] = Metabolic stability in human liver microsomes assessed as compound remaining incubated for 5 mins; assay type: ADME, Microsome; details: read-out: Stability
# [8] = Metabolic stability in human liver microsomes assessed as compound remaining incubated for 20 mins; assay type: ADME, Microsome; details: liver microsomes, read-out: Stability
# [9] = Metabolic stability in human liver microsomes assessed as compound remaining incubated for 60 mins; assay type: ADME, Microsome; details: microsomes, 1 h
# Tubulin = Tubulin (Sus scrofa, UniProt P02554+P02550); assay: Inhibition of tubulin polymerization of pig brain by absorbance based assay
# Histone deacetylase 8 = biological target: T1, Histone deacetylase 8 (Homo sapiens, UniProt Q9BY41); assay: Inhibition of HDAC8 (unknown origin)
# T1 sequence (Q9BY41 whole entry): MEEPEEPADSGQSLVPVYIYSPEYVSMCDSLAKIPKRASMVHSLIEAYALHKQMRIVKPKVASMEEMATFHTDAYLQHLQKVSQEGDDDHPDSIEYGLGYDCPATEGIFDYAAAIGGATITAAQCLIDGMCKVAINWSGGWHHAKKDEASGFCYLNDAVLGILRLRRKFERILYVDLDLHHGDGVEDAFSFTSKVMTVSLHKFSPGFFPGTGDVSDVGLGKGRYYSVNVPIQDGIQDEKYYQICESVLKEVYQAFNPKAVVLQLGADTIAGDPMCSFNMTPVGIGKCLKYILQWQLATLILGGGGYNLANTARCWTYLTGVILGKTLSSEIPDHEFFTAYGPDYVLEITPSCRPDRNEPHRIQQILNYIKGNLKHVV
# [10] = biological target: T2, Protein deacetylase HDAC6 (Homo sapiens, UniProt Q9UBN7); assay: Inhibition of HDAC6 (unknown origin)
# T2 sequence (Q9UBN7 whole entry): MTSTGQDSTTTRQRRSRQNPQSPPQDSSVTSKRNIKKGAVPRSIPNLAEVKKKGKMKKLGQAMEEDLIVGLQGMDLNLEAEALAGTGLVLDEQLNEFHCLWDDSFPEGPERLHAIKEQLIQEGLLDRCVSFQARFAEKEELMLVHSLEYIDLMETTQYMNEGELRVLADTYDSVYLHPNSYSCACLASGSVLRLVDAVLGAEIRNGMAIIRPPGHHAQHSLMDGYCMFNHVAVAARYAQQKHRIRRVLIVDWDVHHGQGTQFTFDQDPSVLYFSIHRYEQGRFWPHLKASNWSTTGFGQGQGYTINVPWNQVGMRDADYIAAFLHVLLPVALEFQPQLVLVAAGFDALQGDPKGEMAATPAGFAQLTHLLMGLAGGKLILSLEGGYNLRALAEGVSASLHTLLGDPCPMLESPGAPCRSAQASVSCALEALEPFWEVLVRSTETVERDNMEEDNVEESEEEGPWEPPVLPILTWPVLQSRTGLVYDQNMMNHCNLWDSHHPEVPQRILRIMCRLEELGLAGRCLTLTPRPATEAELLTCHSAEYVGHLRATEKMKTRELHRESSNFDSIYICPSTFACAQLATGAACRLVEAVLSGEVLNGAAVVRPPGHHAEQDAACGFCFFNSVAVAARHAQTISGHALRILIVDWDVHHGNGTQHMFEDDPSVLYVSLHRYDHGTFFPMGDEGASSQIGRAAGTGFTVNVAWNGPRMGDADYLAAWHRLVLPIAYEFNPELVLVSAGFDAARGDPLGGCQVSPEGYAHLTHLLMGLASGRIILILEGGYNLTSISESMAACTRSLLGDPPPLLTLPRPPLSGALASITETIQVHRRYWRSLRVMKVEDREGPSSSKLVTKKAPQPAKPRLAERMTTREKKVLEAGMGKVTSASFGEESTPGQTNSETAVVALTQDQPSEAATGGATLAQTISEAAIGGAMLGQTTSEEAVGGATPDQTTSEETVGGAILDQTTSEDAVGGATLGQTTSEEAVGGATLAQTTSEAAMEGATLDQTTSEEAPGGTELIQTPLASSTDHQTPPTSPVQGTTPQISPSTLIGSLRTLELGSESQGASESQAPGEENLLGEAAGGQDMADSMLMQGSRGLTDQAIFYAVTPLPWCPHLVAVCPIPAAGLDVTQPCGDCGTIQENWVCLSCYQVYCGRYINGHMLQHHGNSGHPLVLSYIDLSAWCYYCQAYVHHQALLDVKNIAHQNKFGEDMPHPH
# Histone deacetylase 1 = Histone deacetylase 1 (Homo sapiens, UniProt Q13547); assay: Inhibition of HDAC1 (unknown origin)
# Histone deacetylase 1, sequence (Q13547 whole entry): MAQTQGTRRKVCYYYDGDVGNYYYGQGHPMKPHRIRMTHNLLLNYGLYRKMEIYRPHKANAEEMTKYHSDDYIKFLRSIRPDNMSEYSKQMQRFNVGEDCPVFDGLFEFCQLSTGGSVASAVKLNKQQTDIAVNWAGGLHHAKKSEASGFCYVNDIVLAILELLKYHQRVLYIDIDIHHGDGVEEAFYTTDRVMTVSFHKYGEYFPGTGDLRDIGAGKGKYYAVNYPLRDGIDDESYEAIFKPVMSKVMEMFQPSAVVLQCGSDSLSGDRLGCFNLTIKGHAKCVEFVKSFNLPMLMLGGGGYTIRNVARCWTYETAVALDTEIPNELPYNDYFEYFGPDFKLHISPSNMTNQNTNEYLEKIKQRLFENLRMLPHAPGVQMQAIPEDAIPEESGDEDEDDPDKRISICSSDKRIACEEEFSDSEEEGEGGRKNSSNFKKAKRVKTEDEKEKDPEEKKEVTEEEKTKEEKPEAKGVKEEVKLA
# BE(2)-C [11] = assay: Antitumor activity against human BE2C cells xenografted in nude mouse assessed as tumor growth inhibition at 5 mg/kg, ip treated for every 3 days relative to control; assay type: functional; details: 72 h, time 3 day, read-out: TGI
Compound,IC50 (U-87 MG) [nM],IC50 (A549) [nM],IC50 (HCT-116) [nM],IC50 (BE(2)-C [1]) [nM],also measured
COc1ccc([C@H]2[C@H](C)C(=O)N2c2cc(OC)c(OC)c(OC)c2)cc1OCCCC(=O)NO,4400,3650,> 10000,1810,
O=C(CCCCCCC(=O)Nc1ccccc1)NO [VORINOSTAT],,,,2110,CLint scaled [2]: < 8.6 mL/min/kg; solubility at 10 min [3]: 91.7 µg/mL; remaining at 10 min [4]: 98.4%; t1/2 [5]: 2.42 h; Stability [6]: 105.7%; remaining at 5 min [7]: 96.4%; remaining at 20 min [8]: 99%; Stability [9]: 92.8%
C=C1C(=O)N(c2cc(OC)c(OC)c(OC)c2)[C@H]1c1ccc(OC)c(O)c1,143,128,234,186,IC50 (Tubulin): 6600 nM
COc1ccc([C@H]2[C@H](COC(=O)c3ccc(C(=O)O)cc3)C(=O)N2c2cc(OC)c(OC)c(OC)c2)cc1O,432,326,397,776,
C=C1C(=O)N(c2cc(OC)c(OC)c(OC)c2)[C@H]1c1ccc(OC)c(/C=C/C(=O)NO)c1,72,84,60,35,
COc1ccc([C@H]2[C@H](CNC(=O)CCC(=O)NO)C(=O)N2c2cc(OC)c(OC)c(OC)c2)cc1O,> 10000,> 10000,> 10000,> 10000,
C=C1C(=O)N(c2cc(OC)c(OC)c(OC)c2)[C@H]1c1ccc(OC)c(/C=C/CC(=O)NO)c1,2140,1260,620,45,
COc1ccc(/C=C\c2cc(OC)c(OC)c(OC)c2)cc1O [COMBRETASTATIN A4],,,,,solubility at 10 min [3]: 1.04 µg/mL
CC(=O)O[C@H]1C(=O)[C@@]2(C)[C@H]([C@H](OC(=O)c3ccccc3)[C@]3(O)C[C@H](OC(=O)[C@H](O)[C@@H](NC(=O)c4ccccc4)c4ccccc4)C(C)=C1C3(C)C)[C@]1(OC(C)=O)CO[C@@H]1C[C@@H]2O [PACLITAXEL],,,,,inhibition in vivo at 5 mg/kg (BE(2)-C [11]): 44%

# Continued, in another order:
IC50 (U-87 MG) [nM],IC50 (A549) [nM],IC50 (HCT-116) [nM],Compound,IC50 (BE(2)-C [1]) [nM],also measured
> 10000,7820,464,COc1ccc([C@H]2[C@H](C)C(=O)N2c2cc(OC)c(OC)c(OC)c2)cc1OCCCCCC(=O)NO,7690,
> 10000,> 10000,> 10000,COc1ccc([C@H]2[C@H](COC(=O)CCCC(=O)NO)C(=O)N2c2cc(OC)c(OC)c(OC)c2)cc1O,> 10000,
> 10000,> 10000,> 10000,COc1ccc([C@H]2[C@H](CNC(=O)CCCC(=O)NO)C(=O)N2c2cc(OC)c(OC)c(OC)c2)cc1O,> 10000,
23,173,304,COc1ccc([C@H]2[C@@H](C)C(=O)N2c2cc(OC)c(OC)c(OC)c2)cc1/C=C/C(=O)NO,317,
56,54,82,COc1ccc([C@H]2[C@H](C)C(=O)N2c2cc(OC)c(OC)c(OC)c2)cc1OCC(=O)NO,30,
> 10000,16,> 10000,COc1ccc([C@H]2[C@H](COC(=O)CCC(=O)NO)C(=O)N2c2cc(OC)c(OC)c(OC)c2)cc1O,43,IC50 (Histone deacetylase 8): 288 nM; IC50 [10]: 2410 nM; IC50 (Histone deacetylase 1): 301 nM
> 10000,2340,> 10000,COc1ccc([C@H]2[C@H](C)C(=O)N2c2cc(OC)c(OC)c(OC)c2)cc1OCCCCC(=O)NO,3970,
> 10000,479,500,COc1ccc([C@H]2[C@H](CNC(=O)c3ccc(C(=O)NO)cc3)C(=O)N2c2cc(OC)c(OC)c(OC)c2)cc1O,303,
